Assay results: patent US12516049B2, “Sulfonylurea ring substituted monocyclic β-lactam antibiotics” (priority 2019, dated 2026)

What was measured:
Format in all cases: cell-based
E.coli CRE23 = assay: MIC, two-fold agar dilution, clinical isolate; conditions: Escherichia coli; E.coli CRE23; single drug; average of three tests; read-out: MIC
Procedure: (§1) The minimum inhibitory concentration (MIC) of the compound and combination with β-lactamase (MBLs) inhibitors against clinically isolated carbapenem-resistant enterobacteriaceae was determined by the two-fold agar dilution method to determine the activity of the compound to be tested against strains producing MBLs. Antibiotics and enzyme inhibitors were weighed separately and dissolved in sterile ultrapure water or dimethyl sulfoxide to prepare mother liquor, MHA medium was prepared, pH was adjusted to 7.2-7.4, and it was sterilized at 121° C. for 15 minutes and placed in a 55° C. water bath for heat preservation. The mother liquor was diluted to the concentration to be tested by double dilution method, an inoculum liquid was prepared by direct bacterial suspension method, 1 mL of the prepared bacteria solution was withdrawn and putted into the inoculation tube, and a positioning needle and an inoculation needle were installed. A bacterial multi-point inoculator was started for inoculation. After the bacterial solution was absorbed by the agar, the plate was placed upside down in an incubator at 37° C. for 16-20 hours, and the results were observed. The average of three tests was taken.

E.coli C1569 = assay: MIC, two-fold agar dilution, clinical isolate; conditions: Escherichia coli, single drug, average of three tests
Procedure: as §1

K.p C904 = assay: MIC, two-fold agar dilution, clinical isolate
Procedure: as §1

K.p HX37 = assay: MIC, two-fold agar dilution, clinical isolate; conditions: K.p HX37; single drug; average of three tests; read-out: MIC
Procedure: as §1

K.p 090339 = assay: MIC, two-fold agar dilution, clinical isolate
Procedure: as §1

K.p 13249 = assay: MIC, two-fold agar dilution, clinical isolate; conditions: K.p 13249; single drug; average of three tests; read-out: MIC
Procedure: as §1

K.p 6777 = assay: MIC, two-fold agar dilution, clinical isolate
Procedure: as §1

E.coli 020033 = assay: MIC, two-fold agar dilution, clinical isolate; conditions: Escherichia coli, single drug, average of three tests
Procedure: as §1

E.coli 020031 = assay: MIC, two-fold agar dilution, clinical isolate; conditions: Escherichia coli, single drug, average of three tests
Procedure: as §1

K.p CRE11 = assay: MIC, two-fold agar dilution, clinical isolate
Procedure: as §1

K.p HX77 = assay: MIC, two-fold agar dilution, clinical isolate; conditions: single drug, average of three tests
Procedure: as §1

E.coli CRE21 = assay: MIC, two-fold agar dilution, clinical isolate; conditions: Escherichia coli; E.coli CRE21; single drug; average of three tests; read-out: MIC
Procedure: as §1

E.coli 115103 = assay: MIC, two-fold agar dilution, clinical isolate; conditions: Escherichia coli; E.coli 115103; single drug; average of three tests; read-out: MIC
Procedure: as §1

E.coli 020028 = assay: MIC, two-fold agar dilution, clinical isolate; conditions: Escherichia coli, single drug, average of three tests
Procedure: as §1

K.p 115004 = assay: MIC, two-fold agar dilution, clinical isolate
Procedure: as §1

K.p 11544 = assay: MIC, two-fold agar dilution, clinical isolate; conditions: K.p 11544; single drug; average of three tests; read-out: MIC
Procedure: as §1

K.p BAA-2470 = assay: MIC, two-fold agar dilution, clinical isolate
Procedure: as §1

K.p CRE12 = assay: MIC, two-fold agar dilution, clinical isolate; conditions: single drug, average of three tests
Procedure: as §1

E.coli BAA-2452 = assay: MIC, two-fold agar dilution, clinical isolate; conditions: Escherichia coli, BAA2452
Procedure: as §1

[1] = tested on: Morganella morganii C1274; assay: MIC, two-fold agar dilution, clinical isolate; conditions: Morganella morganii, C1274
Procedure: as §1

E.coli CRE18 = assay: MIC, two-fold agar dilution, clinical isolate; conditions: Escherichia coli; E.coli CRE18; single drug; average of three tests; read-out: MIC
Procedure: as §1

E.coli CRE28 = assay: MIC, two-fold agar dilution, clinical isolate; conditions: Escherichia coli; E.coli CRE28; single drug; average of three tests; read-out: MIC
Procedure: as §1

K.p CRE16 = assay: MIC, two-fold agar dilution, clinical isolate; conditions: single drug, average of three tests
Procedure: as §1

[2] = tested on: Klebsiella pneumonia ATCC BAA-205 (TEM-1/SHV-1/SHV-12); assay: MIC, micro-liquid dilution (CLSI); conditions: Klebsiella pneumoniae, ATCCBAA205; K. pneumonia ATCC BAA-205, Class A (TEM-1/SHV-1/SHV-12); 20-24 h, 37° C.
Procedure: (§2) Three strains of Klebsiella pneumonia, ATCC BAA-205 (TEM-1/SHV-1/SHV-12), ATCC BAA-1705 (KPC-2), ATCC BAA-2470 (NDM-1), Enterobacter cloacae ATCC BAA-1143 (AmpC), two strains of Escherichia coli ATCC BAA-2523 (OXA-48), ATCC 25922 were used to determine the minimum inhibitory concentration (MIC) of each of the compounds by micro-liquid dilution method according to the Institute of Clinical and Laboratory Standard (CLSI) requirements. […]. The plate was placed upside down at 37° C. and the MIC value was read after 20-24 h of incubation, and the lowest drug concentration that inhibited the growth of bacteria was set as MIC. Colony-Forming Units (CFU) refer to the total number of bacterial colonies per unit volume.

[3] = tested on: Klebsiella pneumonia ATCC BAA-1705 (KPC-2); assay: MIC, micro-liquid dilution (CLSI); conditions: Klebsiella pneumoniae, ATCCBAA1705; K. pneumonia ATCC BAA-1705, Class A (KPC-2); 20-24 h, 37° C.
Procedure: as §2

[4] = tested on: Escherichia coli ATCC BAA-2523 (OXA-48); assay: MIC, micro-liquid dilution (CLSI); conditions: ATCCBAA2523
Procedure: as §2

[5] = tested on: Escherichia coli ATCC 25922; assay: MIC, micro-liquid dilution (CLSI); conditions: ATCC25922, E. coli ATCC 25922, 20-24 h, 37° C.
Procedure: as §2

[6] = tested on: Klebsiella pneumonia ATCC BAA-2470 (NDM-1); assay: MIC, micro-liquid dilution (CLSI); conditions: Klebsiella pneumoniae, ATCCBAA2470; K. pneumonia ATCC BAA-2470, Class B (NDM-1); 20-24 h, 37° C.
Procedure: as §2

[7] = tested on: Enterobacter cloacae ATCC BAA-1143 (AmpC); assay: MIC, micro-liquid dilution (CLSI); conditions: ATCCBAA1143, E. cloacae ATCC BAA-1143, Class C (AmpC), 20-24 h, 37° C.
Procedure: as §2

Measured: MIC

NC[C@@H]1CN(C[C@@H]2[C@H](NC(=O)/C(=N\OC3(C(=O)O)CC3)c3csc(N)n3)C(=O)N2S(=O)(=O)O)S(=O)(=O)N1 [Compound 4]
0.06 mg/L: K.p 13249 | K.p 11544 | K.p CRE12 | K.p CRE16
0.25 mg/L: K.p HX37 | [5] | [6]
0.5 mg/L: E.coli 020031 | [2] | [7]
1 mg/L: E.coli CRE23 | E.coli C1569 | E.coli 020033 | E.coli CRE21 | E.coli 115103 | E.coli CRE18 | E.coli CRE28 | [3]
0.03 mg/L: K.p HX77 | E.coli 020028
0.125 mg/L: all other assays above
